Assay results reported in patent US9605013B2, “Derivatives of hemin with antibacterial and antiviral activity” (OBSCHESTVO S OGRANICHENNOI OTVETSTVENNOSTIYU …, priority 2011, dated 2017).

Experiments:
Format in all cases: cell-based
[1] = system: Staphylococcus aureus No. 25923 ATCC; test: Antibacterial specific activity, twofold dilutions, visual growth evaluation; conditions: S. aureus 25923; 36° C., 24 hours
In short: (§1)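 Twofold serial broth dilutions, inoculum 5×10^5 CFU/ml, compounds from water or DMSO stocks; 24 h at 36° C. MIC taken visually as last dilution suppressing growth versus compound-free growth control.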

[2] = system: Staphylococcus aureus No. 5 (MRSA); test: as above; conditions: St. aur No. 5 MRSA; 36° C., 24 hours
In short: as §1

[3] = system: Herpes Simplex Virus type 1 strain EC; test: Antiviral activity, virus cytopathogenic action in Vero cells; design: key: 0: CPA (cytopathogenic action) is not detected; 1: up to 25% virus-infected monolayer; from 25% to 50%; 3: from 50% to 75%; 4: from 75% to 100%; conditions: 48 hours
[4] = HSV-1, virus dose 1, concentration 0.1 μM
[5] = HSV-1, virus dose 1, concentration 1 μM
[6] = HSV-1, virus dose 1, concentration 10 μM
[7] = HSV-1, virus dose 10, concentration 0.1 μM
[8] = HSV-1, virus dose 10, concentration 1 μM
[9] = HSV-1, virus dose 10, concentration 10 μM
[10] = HSV-1, virus dose 100, concentration 0.1 μM
[11] = HSV-1, virus dose 100, concentration 1 μM
[12] = HSV-1, virus dose 100, concentration 10 μM

Compound	MIC [1] [µM]	MIC [2] [µM]	manifestation of the virus CPA [3, 4]	manifestation of the virus CPA [3, 5]	manifestation of the virus CPA [3, 6]	manifestation of the virus CPA [3, 7]	manifestation of the virus CPA [3, 8]	manifestation of the virus CPA [3, 9]	manifestation of the virus CPA [3, 10]	manifestation of the virus CPA [3, 11]	manifestation of the virus CPA [3, 12]
C=CC1=C(C)c2cc3[n-]c(cc4[n-]c(cc5nc(cc1n2)C(C)=C5C=C)c(C)c4CCC(=O)N[C@@H](CO)C(=O)O)c(CCC(=O)N[C@@H](CO)C(=O)O)c3C.[Cl-].[Fe+3] [VI, 6,7-bis-(N^α-Seryl]-Protohemin (IX)]	12.5	0.78	0^1	0^1	0^1	2 (from 25% to 50%)	2 (from 25% to 50%)	2^ (from 25% to 50%)	3 (from 50% to 75%)	3.3 scores	3 (from 50% to 75%)
C=CC1=C(C)c2cc3[n-]c(cc4[n-]c(cc5nc(cc1n2)C(C)=C5C=C)c(C)c4CCC(=O)N[C@@H](CCCNC(=N)N)C(N)=O)c(CCC(=O)N[C@@H](CCCNC(=N)N)C(N)=O)c3C.[Cl-].[Fe+3] [II, 6,7-bis-(Amide N^α-Arginyl)-Protohemin (IX)]	1.04	41	–	–	–	–	–	–	–	–	–
6,7-bis-[(Diamide N^α-L-Arginyl)-L-glutamyl]-Protohemin (IX)	1.56	–	–	–	–	–	–	–	–	–	–
6,7-bis-(Amide N^α-Glycyl)-Protohemin (IX) [IV]	0.39	3.12	1 (up to 25% virus-infected monolayer)	1 (up to 25% virus-infected monolayer)	0^1	2 (from 25% to 50%)	2 (from 25% to 50%)	0^1	3 (from 50% to 75%)	3 (from 50% to 75%)	2^1 (from 25% to 50%)
C=CC1=C(C)c2cc3[n-]c(cc4[n-]c(cc5nc(cc1n2)C(C)=C5C=C)c(C)c4CCC(=O)N[C@@H](CO)C(N)=O)c(CCC(=O)N[C@@H](CO)C(N)=O)c3C.[Cl-].[Fe+3] [V, 6,7-bis-(Amide N^α-Seryl)-Protohemin (IX)]	0.78	1.56	–	–	–	–	–	–	–	–	–
